Eight compounds from ChEMBL document CHEMBL1153656, “Synthesis of homochiral potassium channel openers: role of the benzopyranyl 3-hydroxyl group in cromakalim and pyridine N-oxides in determining the biological activities of enantiomers” (Bioorg Med Chem Lett, 1992) can be followed below.

The species entered for the first assay is Rattus norvegicus. The experiment in a line: The concentration of test substance producing half maximal reduction of the contraction evoked by 20 mM KCI in rat hepatic portal veins. The assay is classed as functional.
Details: not given
Compound `CC1(C)Oc2ccc(C#N)cc2[C@H](N2CCCC2=O)[C@H]1O` (single isomer, unassigned) [(-)-CROMAKALIM] yielded an IC50 of 74 nM.

With `CC1(C)Oc2ccc(C#N)cc2[C@H](N2CCCC2=O)[C@H]1O` [(-)-CROMAKALIM], the concentration for half-maximal inhibition (IC50) was 6600 nM. This IC50 is about 89-fold higher than that of the compound before.

The same assay, now with this note: Rattus norvegicus.
Consider `CC1(C)Oc2ccc(C#N)cc2[C@H](c2cccc[n+]2[O-])[C@H]1O`, for which the IC50 was determined as 1200 nM.

`CC1(C)C[C@H](N2CCCC2=O)c2cc(C#N)ccc2O1` came in with an IC50 of 1150 nM. This IC50 and that of the compound before are within 1.5-fold of each other.

`CC1(C)C[C@H](c2cccc[n+]2[O-])c2cc(C#N)ccc2O1` returned an IC50 of 210 nM.

With `CC1(C)Oc2ccc(C#N)cc2[C@@H](c2cccc[n+]2[O-])[C@@H]1O`, the IC50 worked out at 100 nM. Against the preceding compound, the IC50 is about 2.1-fold lower.

For `CC1(C)C[C@@H](c2cccc[n+]2[O-])c2cc(C#N)ccc2O1`, the IC50 worked out at 75 nM.

On to `CC1(C)C[C@@H](N2CCCC2=O)c2cc(C#N)ccc2O1`, for which the IC50 was determined as 520 nM.
